Earlier results on two substances are cited in patent US8097602B1, “Method of treating body insect infestation” (Host Pharmaceuticals, LLC, priority 2008, dated 2012).

The conditions of this data set: at 20° C.

In the case of n-alkanes, the “Surface Tension (dynes/cm)” value is reported as 37.8^1 dynes/cm. For n-fluoroalkanes, the “Surface Tension (dynes/cm)” value is 25.9^1 dynes/cm.
